# Assay results as given in PMC6982741, “Design, Synthesis and Study of Nitrogen Monoxide Donors as Potent Hypolipidaemic and Anti-Inflammatory Agents” (Molecules, 2019).
# Where two headings read alike, the source gives them in different places. Marks after values point to notes of the source that are not given here.
# Legend:
# hyperlipidaemic rats = assay: Triton WR1339 (tyloxapol) induced hyperlipidaemia in rats; type: in vivo, Wistar rats; conditions: Rattus norvegicus, ip, 24 h, 150 μmol/kg i.p., tyloxapol 200 mg/kg i.p., plasma after 24 h
# Source text: The pleiotropic effects of statins, used as hypolipidaemic drugs, include antioxidant ability and direct increase of eNOS activity, in addition to inhibition of 3-hydroxy-3-methylglutaryl coenzyme A (HMG-CoA) reductase. […] The systemic administration of Triton-WR1339 (tyloxapol) to rats induces a biphasic elevation of plasma cholesterol, atherogenic VLDL cholesterol and LDL cholesterol, as well as triglyceride levels. […] Agents shown to be active in phase I are considered to interfere with cholesterol biosynthesis.
# κ-Carrageenan and lipoxygenase type I-B from soybean were purchased from Sigma (St. Louis, MO, U.S.A.). For the in vivo experiments, Wistar rats (180–220 g, 3–4 months old) were kept in the Centre of the School of Veterinary Medicine (EL54 BIO42), Aristotelian University of Thessaloniki, which is registered by the official state veterinary authorities (presidential degree 56/2013, in harmonization with the European Directive 2010/63/EEC). The experimental protocols were approved by the Animal Ethics Committee of the Prefecture of Central Macedonia (no. 270079/2500).
# Hyperlipidaemia was induced by the i.p. administration of Triton WR 1339 (200 mg/kg) to rats. […] Blood was taken from the aorta after 24 h, for the determination of plasma total cholesterol, LDL-cholesterol and triglyceride concentrations, using commercial kits.
# [1] = In vitro nitrogen monoxide release (Griess reagent); conditions: DMSO/water 7/3, overnight, cadmium
# Description: Due to their poor aqueous solubility, compounds 1, 3-7 and 9 were dissolved in 7/3 (v/v) mixture of DMSO/water at various concentrations and incubated overnight at room temperature in the presence of cadmium. S-nitroso-N-acetylpenicillamine (SNAP) was dissolved either in DMSO/water 7/3 or in water and treated as above.
# Aliquots were taken from each sample and added to an equal volume of N-naphthylaminoethylamine (0.2%) and sulfanilamide (2%) solution in 3 N hydrochloric acid (Griess reagent). Appropriate sodium nitrite solutions in the same DMSO/water mixture were used for the construction of the standard curve and values were identical to those obtained with aqueous solutions. Nitric oxide release was estimated spectrophotometrically (540 nm).
# soybean lipoxygenase 1-B = target: T1, soybean lipoxygenase 1-B (Glycine max, UniProt P08170); assay: In vitro soybean lipoxygenase inhibition, linoleate as substrate; type: biochemical; conditions: sodium linoleate 100 μM; after 7 min of incubation; pH 9.0, 28 °C
# T1 construct: purchased Sigma (St. Louis, MO, U.S.A.)
# T1 sequence (P08170 1-839): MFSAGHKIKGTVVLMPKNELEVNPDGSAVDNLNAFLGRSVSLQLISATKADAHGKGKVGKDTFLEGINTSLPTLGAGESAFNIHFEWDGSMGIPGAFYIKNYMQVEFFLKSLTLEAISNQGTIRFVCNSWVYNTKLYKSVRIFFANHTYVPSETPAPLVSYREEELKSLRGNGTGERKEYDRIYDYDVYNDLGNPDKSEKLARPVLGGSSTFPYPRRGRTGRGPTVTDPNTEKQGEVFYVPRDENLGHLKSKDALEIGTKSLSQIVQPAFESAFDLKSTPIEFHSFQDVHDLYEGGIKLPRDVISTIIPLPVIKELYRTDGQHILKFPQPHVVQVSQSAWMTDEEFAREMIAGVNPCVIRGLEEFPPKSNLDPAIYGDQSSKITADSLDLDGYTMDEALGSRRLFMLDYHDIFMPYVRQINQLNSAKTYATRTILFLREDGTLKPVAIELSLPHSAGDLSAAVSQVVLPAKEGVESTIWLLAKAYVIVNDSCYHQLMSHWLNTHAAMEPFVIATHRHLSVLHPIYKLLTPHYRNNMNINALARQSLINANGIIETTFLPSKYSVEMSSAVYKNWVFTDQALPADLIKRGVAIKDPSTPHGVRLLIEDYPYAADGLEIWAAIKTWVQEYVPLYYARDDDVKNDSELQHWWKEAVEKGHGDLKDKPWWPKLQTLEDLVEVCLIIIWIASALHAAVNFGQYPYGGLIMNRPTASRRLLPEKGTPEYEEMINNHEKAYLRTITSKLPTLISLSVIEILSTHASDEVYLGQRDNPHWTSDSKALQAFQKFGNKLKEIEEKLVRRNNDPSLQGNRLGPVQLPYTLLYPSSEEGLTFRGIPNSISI
# Description: The reaction mixture contained the examined compounds (in absolute ethanol, 1–300 μM), soybean lipoxygenase (in saline, 250 u/mL) and sodium linoleate (100 μM), in Tris–HCl buffer, pH 9.0. The reaction was monitored for 7 min at 28 °C, recording the absorbance at 234 nm. […]
# [2] = system: rat hepatic microsomal membrane lipid peroxidation; assay: Fe2+/ascorbate induced lipid peroxidation, TBA reactive material; type: biochemical; conditions: for IC50: after 45 min of incubation, read-out: Inhibition of Lipid Peroxidation IC50
# Description: (§1) The antioxidant activity of compounds was estimated by the inhibition of rat hepatic microsomal membrane lipid peroxidation, induced by Fe^+2/ascorbate, estimated as 2-thiobarbituric acid (TBA) reactive material, and by their interaction with the N-centred 1,1-diphenyl-2-picrylhydrazyl (DPPH) stable free radical. […] The percent interaction with DPPH and the IC50 values of compounds 7–9 on rat hepatic microsomal membrane lipid peroxidation, after 45 min of incubation is shown in Table 4.
# The peroxidation of heat-inactivated (90°, 90 s) rat liver microsomal fraction was induced by ascorbic acid (0.2 mM) and ferrous sulphate (10 μΜ). The studied compounds, in dimethylsulfoxide, were added at concentrations 1 μM–1 mM. Aliquots were taken from the incubation mixture (37 °C) for 45 min. Lipid peroxidation was assessed spectrophotometrically (535/600 nm) as 2-thiobarbituric acid reactive material. All compounds and solvents were found not to interfere with the assay.
# [3] = Interaction with the stable radical DPPH; conditions: DPPH 200 μΜ, after 30 min
# Description: as §1
# Compounds (in absolute ethanol, final concentrations 25–200 μM) were added to an ethanolic solution of DPPH (final concentration 200 μM) at room temperature (22 ± 2 °C). Absorbance (517 nm) was recorded after 30 min.
# [4] = system: carrageenan-induced rat paw oedema; assay: Carrageenan-induced rat paw oedema; type: in vivo, Wistar rats; conditions: 0.15 mmol/kg i.p., oedema after 3.5 h, vs carrageenan-only controls; for inhibition in vivo at 150 µmol/kg: Rattus norvegicus, ip, read-out: % Oedema Reduction
# Description: The carrageenan-induced paw oedema is a well-known and widely used model of acute inflammation. The response to carrageenan inflammation may be divided into three phases. In the first phase (after 1.5 h), histamine and serotonin are released, the second phase (1.5–2.5 h after carrageenan administration) is mediated by kinins, whereas, in the third phase, more than two hours post administration, neutrophil infiltration, prostaglandin production and release of pro-inflammatory cytokines are involved. In this work, oedema was measured 3.5 h post injection.
# κ-Carrageenan and lipoxygenase type I-B from soybean were purchased from Sigma (St. Louis, MO, U.S.A.).
# The tested compounds (in water with a few drops of Tween 80) were given i.p. (0.15 mmol/kg) to rats, just after the i.d. injection of 0.1 mL of an aqueous carrageenan solution (1% w/v) in the hind paw of rats. The produced oedema, after 3.5 h, was estimated as paw weight increase.
# [5] = read-out: % Reduction LDL-C (LDL cholesterol)
# [6] = read-out: % Reduction TC (total cholesterol)
# [7] = read-out: % Reduction TG (triglycerides)
SMILES,inhibition in vivo at 150 µmol/kg (hyperlipidaemic rats; [5]) [%],inhibition in vivo at 150 µmol/kg (hyperlipidaemic rats; [6]) [%],inhibition in vivo at 150 µmol/kg (hyperlipidaemic rats; [7]) [%],melting point [°C],NO Release ([1]; compound 31.25 μM) [μΜ],NO Release ([1]; compound 62.5 μM) [μΜ],NO Release ([1]; compound 125 μM) [μΜ],NO Release ([1]; compound 250 μM) [μΜ],NO Release ([1]; compound 500 μM) [μΜ],IC50 (soybean lipoxygenase 1-B) [µM],IC50 [2] [µM],"lag period in time course of lipid peroxidation ([2]; various concentrations, Figure 2)",Percent Interaction with DPPH ([3]; compound 50 μΜ) [%],Percent Interaction with DPPH ([3]; compound 100 μΜ) [%],Percent Interaction with DPPH ([3]; compound 200 μΜ) [%],inhibition in vivo at 150 µmol/kg [4] [%],% Oedema Reduction [4]
"Cc1c(C)c2c(c(C)c1O)CCC(C)(C(=O)OCCO[N+](=O)[O-])O2 (racemic) [Compound 9, (±)-2-(Nitrooxy)ethyl 6-hydroxy-2,5,7,8-tetramethylchroman-2-carboxylate]",65,55.4,30,95 to 97,3,10,23,49,93,120,2.3,about 20 min,55,90,92,57,
"COc1ccc2c(c1)c(CC(=O)OCCO[N+](=O)[O-])c(C)n2C(=O)c1ccc(Cl)cc1 [Compound 3, 2-(Nitrooxy)ethyl 2-(1-(4-chlorobenzoyl)-5-methoxy-2-methyl-1H-indol-3-yl)acetate]",62.3,71.7,31.8,83 to 84,5,13,28,58,102,107,,,,,,29,
"CC(C)(C)c1cc(/C=C/C(=O)OCCO[N+](=O)[O-])cc(C(C)(C)C)c1O [Compound 7, (E)-2-(Nitrooxy)ethyl 3-(3,5-di-tert-butyl-4-hydroxyphenyl)acrylate]",60.6,66,45.7,80,2,6.5,17,38,77,44,41,,21,49,87,55,55 ** %
"CC(C)(C)c1cc(/C=C/C(=O)OCCc2ccc([N+](=O)[O-])cc2)cc(C(C)(C)C)c1O [Compound 8, (E)-4-Nitrophenethyl 3-(3,5-di-tert-butyl-4-hydroxyphenyl)acrylate]",,,,156 to 157,,,,,,10.5,150,,23,57,88,51,51 ** %
